Laboratory results published in patent publication US20120329721A1, “MEANS FOR PREVENTING AND TREATING CELLULAR DEATH AND THEIR BIOLOGICAL APPLICATIONS” (CHIESI FARMACEUTICI S.P.A., priority 2003, published 2012).
Entries after “also recorded” stand apart in the source; their conditions may differ. Read-outs that look alike come from different tables or passages of the source. Residues, ends and D or L forms follow the SMILES beside them. *: point of attachment. Cbz = O=C(OCc1ccccc1)*; d = 2'-deoxy (DNA); r = 2'-OH (RNA); CH2F = FC*

Columns and labels:
[1] = tested on: neonatal ischemic brain injury in 7 day-old rats; details: cited from earlier work
[2] = molecular target: T1, human recombinant caspase-2 (Homo sapiens, UniProt P42575); test: In vitro VDVAD-AMC cleavage by recombinant caspase-2; format: biochemical
T1 construct: purchased BIOMOL
T1 sequence (P42575 170-325 limits assumed): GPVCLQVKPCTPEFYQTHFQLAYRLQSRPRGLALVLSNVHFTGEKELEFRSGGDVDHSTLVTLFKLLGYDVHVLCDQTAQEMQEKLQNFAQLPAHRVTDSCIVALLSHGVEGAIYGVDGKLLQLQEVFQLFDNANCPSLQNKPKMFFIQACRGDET
T1 sequence (P42575 348-452 limits assumed): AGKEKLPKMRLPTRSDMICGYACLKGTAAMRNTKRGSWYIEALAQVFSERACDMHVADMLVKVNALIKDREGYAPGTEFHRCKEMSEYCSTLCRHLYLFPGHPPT
Description: Activity of human recombinant caspase-2 (BIOMOL QuantiZyme™ Assay System) was assessed in 100 μl assay buffer (50 mM HEPES, pH 7.4, 100 mM NaCl, 0.1% CHAPS, 10 mM DTT, 1 mM EDTA, 10% glycerol).

[3] = tested on: primary cortical neurons; format: cell-based; details: for ΔΨm loss (drop) in SD-neurons: JC-1
[4] = tested on: caspase-9; test: In cellula caspase-9 like activity (FAM-LEHD-FMK FLICA) in SD-neurons; format: cell-based, mouse
Description: Neurons were incubated with 1/150 of the DMSO stock solution of the FLICA for 1 hr at 37° C. 7-AAD and Hoechst were added during the last 15 min. Then neurons were washed three times in washing buffer (CaspaTag™ Kit). […] Cleaved caspase-3 was evidenced in cellula by immunodetection using Phycoerythrin (PE)-conjugated polyclonal antibodies (Beckton Dickinson). Neurons were stained by 7-AAD, trypsinized and fixed in PBS containing 1% PFA and 20 μg/ml Actinomycin D (AD) for 20 min. […] After washings in PBS, PE-related fluorescence was analysed on the cytometer (Fl-2 channel). Z-val-Ala-Asp(OMe)-FMK (Z-VAD-FMK), Quinoline-Val-Asp (OMe)-CH2-O-Ph (Q-VD-OPH), Z-DEVD-FMK ([…], ICN) and Z-LEHD-FMK ([…], all purchased from ICN (Orsay, France), and 4-(2-Aminoethyl)benzenesulfonyl fluoride (AEBSF, Pefabloc SC, Roche, Meylan, France) were added at 100 μM at the initiation of serum deprivation. Sulforhodamine-DEVD-FMK, (CaspaTag™ Red Activity Kit) permitted to detect activated caspase-3 and FITC-Annexin V. Neurons were incubated with 1/900 of the DMSO stock solution of the FLICA, and 1× FITC-annexin V in 200 μl of annexin-buffer for 30 min at 37° C. Then neurons were washed three times in a buffer composed of 50% washing buffer and 50% annexin-buffer. […] For FM, FLICA was excited through the BP515-560 filter and its fluorescence was collected through the LP590 long pass emission filter.
Neurons were loaded with 1 μM JC-1 for 30 min at 37° C. […] JC-1 monomers were detected in the Fl-1 channel by FC. […] Activated caspase-2, -3, -8 and -9 were detected using specific FAM-conjugated peptides (called Fluorochrome Labeled Inhibitor of Caspase, FLICA: CaspaTag™ fluorescein Caspase Activity Kits, Q-Biogen, Illkirch, France; ApoFluor™ Caspase Detection Kits, ICN, Orsay, France): FAM-VDVAD-FMK, FAM-DEVD-FMK, FAM-LETD-FMK and FAM-LEHD-FMK, respectively. Neurons were incubated with FLICAs (1:150, CaspaTag™ or 1:500, ApoFluor™) for 1 hr at 37° C., then washed three times in washing buffer. […] Phosphatidylserine (PS) exposure to the outer leaflet of the plasma membrane was detected through the fixation of FITC conjugated-annexin V (Immunotech).

[5] = tested on: cytochrome c; test: Immunodetection of cytochrome c release in SD-neurons; format: cell-based, mouse
[6] = tested on: primary cortical neurons; test: Cortical neuron death induced by other stimuli (ionomycin, staurosporine, β-amyloid 25-35, MPTP, 3-NPA, SNP); format: cell-based, mouse
[7] = tested on: caspase-2; test: In cellula caspase-2 like activity (FAM-VDVAD-FMK FLICA; Western blotting) in SD-neurons; format: cell-based, mouse
[8] = tested on: caspase-8; test: In cellula caspase-8 like activity (FAM-LETD-FMK FLICA) in SD-neurons; format: cell-based, mouse
[9] = tested on: Bax; test: Bax translocation to mitochondria in SD-neurons (Δ21 antibody immunostaining, subcellular fractionation); format: cell-based, mouse
[10] = tested on: caspase-3; test: In cellula caspase-3 like activity (FAM-DEVD-FMK FLICA or anti-cleaved caspase-3 antibody) in SD-neurons; format: cell-based, mouse
[11] = tested on: neonatal ischemic brain injury in 7 day-old rats; details: rat, in vivo, ip
[12] = tested on: Jurkat cells; test: VP16-induced cell death of Jurkat cells, cytoprotection assay; format: cell-based, human
[13] = tested on: caspase-2; test: Caspase-2 activation (FLICA) in VP16-treated Jurkat cells; format: cell-based, human; details: VP16 10 μM, 7 hrs; inhibitors 50 μM
[14] = tested on: murine caspase-2; test: Caspase-2 knock-down by siRNA in cortical neurons (RT-PCR, Western blotting, 10C6 immunostaining); format: cell-based, mouse; details: in situ antibody-based detection
[15] = tested on: Bax α; test: Bax cleavage (p22 to p18) in SD-neurons by Western blotting; format: cell-based, mouse; details: 24 hr-SD, Western Blotting Δ21 antibody; VDVAD/QVDOPH 100 μM, ALLN/ALLM 25 μM, E64d 25-50 μM, lactacystin 1-10 μM, epoxomycin 10 μM
Description: Neurons were lysed at RT in 25 mM Tris-HCl pH 7.4, 25 mM NaCl, 5 mM EDTA, 1% Triton X-100 supplemented by complete protease inhibitors cocktail (Roche). Protein concentration was determined using the Bio-Rad protein assay kit. Proteins (30 μg for caspase-2; 10 μg for Bax) were separated on 12.5% polyacrylamide gels and transferred to PVDF membranes (Amersham). […] The monoclonal anti-mouse caspase-2antibody (11B4, Alexis Biochemicals) was used at a 1:1000 dilution; polyclonal antibody (Δ21, Santa Cruz Biotechnology) raised against mouse Bax α deleted for the carboxy terminal 21 amino acids was used at a 1:200 dilution; polyclonal antibody (N20, Santa Cruz Biotechnology) raised against the amino terminus of Bax α (recognizing residues 11 to 30) was used at a 1:1000 dilution. Actin (42 kDa; Sigma; 1:5000) is used as an equal loading control. Immunoblotting of heat-shock protein 60 (HSP60) with a mouse monoclonal anti-HSP (Sigma; 1:400) was used to check the purity of the heavy membrane fraction enriched in mitochondria.

[16] = molecular target: T2, VDVAD-AMC
T2 chain: VDVAD

[17] = inhibitor 2 μM, 50 μM VDVAD-AMC, caspase-2 125 U, 30 min at 37° C.
[18] = 24 hr-SD, inhibitors 100 μM (BA 25 μM)
[19] = 24 hr-SD, inhibitors 100 μM (BA 25 μM), listed as z-LEHD-fmk
[20] = 24 hr-SD, inhibitors 100 μM (BA 25 μM), listed as LEHD

Molecule: COC(=O)CC(NC(=O)OC(C)(C)C)C(=O)CF [BOC-D-FMK, BOC-Asp(OMe)-fluoromethylketone]
- animals with aggravation ([1]; Renolleau's model): 60%
- reduction in infarct volume (previous results in this model) ([1]; previous results obtained in this model): did not induce such a significant reduction in infarct volume
- inhibition of VDVAD-AMC cleavage by recombinant caspase-2 [2, 17]: completely inactive
- survival / protection of SD-neurons against cell death (apoptosis hallmarks overall) [3]: neither Z-VAD-FMK nor BOC-D-FMK (BOC-D) is able to delay or to abrogate; also recorded: inefficient
- Survival ([3]; SD model, compound added at the start of SD at the concentration of column '[ ], μM' (first concentration/target where two are printed)): No

Molecule: COC(=O)CC(NC(=O)C(NC(=O)c1ccc2ccccc2n1)C(C)C)C(=O)COc1ccccc1 (stereo not shown) [Q-VD-OPH, Quinoline-Val-Asp (OMe)-CH2-O-Ph]
- inhibition of VDVAD-AMC cleavage by recombinant caspase-2 [2]: blocked
- caspase-9 like activity / activation in SD-neurons [4]: completely inactivated; also recorded: prevent downstream cytochrome c release-dependent activation
- cytochrome c release from mitochondria in SD-neurons [5]: efficiently blocked
- cell death induced by staurosporine or ionomycin [6]: is not prevented
- protection from NA and PMP induced by β-amyloid (25-35), MPTP, 3-NPA, SNP or ionomycin [6]: fails to provide protection, except for β-amyloid; also recorded: fail to prevent significantly
- caspase-2 like activity / activation in SD-neurons [7]: completely inactivated; also recorded: abolish caspase-2 activation
- caspase-8 like activity in SD-neurons [8]: completely inactivated
- Bax translocation (relocation) to mitochondria in SD-neurons [9]: impair Bax translocation to mitochondria; also recorded: prevented
- caspase-3 like activity / activation in SD-neurons [10]: strongly prevent; also recorded: completely inactivated; also recorded: prevent downstream cytochrome c release-dependent activation
- inhibition of caspase-3 like activity induced by serum deprivation ([10]; 100 µM): 95.3 +/- 5.6%
- Survival [3]: Yes
- concentration required for optimal survival / higher protective effect [3]: 100 µM
- degradation phase of apoptosis: PS exposure, nuclear apoptosis (NA), PMP in SD-neurons [3]: strongly prevent; also recorded: fully blocked
- inhibition of PMP (7-AAD) induced by serum deprivation [3]: 93.9+/−3.8%
- survival / protection of SD-neurons against cell death (apoptosis hallmarks overall) [3]: mostly rescued; also recorded: highly preserves both nuclear morphology and neurites integrity
- animals that exhibited no infarct [11]: 4
- infarct volume (% damage in the lesioned ipsilateral hemisphere) [11]: 12.4±2.6%
- mortality rate during ischemia or before killing [11]: < 4%
- reduction in infarct volume [11]: 44%
- cell death induced by VP16 (survival) [12]: prevents cell death
- terminal nuclear alterations and PMP in VP16-treated Jurkat cells [12]: mostly prevent

Molecule: COC(=O)CCC(NC(=O)C(CC(C)C)NC(=O)OCc1ccccc1)C(=O)NC(Cc1cnc[nH]1)C(=O)NC(CC(=O)OC)C(=O)CF (stereo not shown) [Z-LEHD-FMK, N-benzyloxycarbonyl-Leu-Glu(Ome)-His-Asp(OMe)-fluoromethylketone] (Cbz-LE(OMe)HD(OMe)-CH2F; configuration not given here)
- inhibition of VDVAD-AMC cleavage by recombinant caspase-2 [2, 17]: did not interfere highly; also recorded: not strongly inactivated
- caspase-9 like activity / activation in SD-neurons [4, 18]: prevents caspase-9 activation
- caspase-9 like activity / activation in SD-neurons [4, 19]: abolition of caspase-9 like activity
- cytochrome c release from mitochondria in SD-neurons ([5]; 24 hr-SD, inhibitors 100 μM): could not prevent cytochrome c release
- cytochrome c release from mitochondria in SD-neurons ([5]; 24 hr-SD, inhibitors 100 μM, listed as LEHD): fail to impair cytochrome c release
- caspase-2 activation in VP16-treated Jurkat cells [13]: do not impair caspase-2 activation
- Bax translocation (relocation) to mitochondria in SD-neurons ([9]; 24 hr-SD, inhibitors 100 μM (furosemide 2 mM)): does not prevent mitochondrial Bax relocation
- Bax translocation (relocation) to mitochondria in SD-neurons ([9]; 24 hr-SD, inhibitors 100 μM (furosemide 2 mM), listed as LEHD): fail to impair Bax relocation
- ΔΨm loss (drop) in SD-neurons [3, 18]: does not impair; also recorded: does not impaired ΔΨm drop
- ΔΨm loss (drop) in SD-neurons [3, 20]: does not impair ΔΨm drop
- degradation phase of apoptosis: PS exposure, nuclear apoptosis (NA), PMP in SD-neurons [3, 18]: delays and prevents apoptotic bodies formation but not stage I-condensation; also recorded: prevents
- degradation phase of apoptosis: PS exposure, nuclear apoptosis (NA), PMP in SD-neurons [3, 20]: preventing PS exposure, NA and PMP
- degradation phase of apoptosis: PS exposure, nuclear apoptosis (NA), PMP in SD-neurons [3, 19]: abolishes PS exposure and PMP
- ΔΨm loss in VP16-treated Jurkat cells ([12]; VP16 10 μM, 7-8 hrs, inhibitors 50 μM): not abolished

Molecule: siRNA C2 m: irrelevant control siRNA with 4 mutations, duplex of SEQ ID No 3 and SEQ ID No 4 (chain 1 CAUCUACUCGAGACGGACATT; chain 2 UGUCCGUCUCGAGUAGAUGTT; sugars from the 5' end r19 d2, backbone not given here)
- caspase-2 expression (gene silencing / knock-down) [14]: prevents neither gene/protein expression
- Bax cleavage (p18 Bax) in SD-neurons [15]: has no effect

B1: human recombinant caspase-2 (BIOMOL QuantiZyme Assay System) (protein)
chain: GPVCLQVKPCTPEFYQTHFQLAYRLQSRPRGLALVLSNVHFTGEKELEFRSGGDVDHSTLVTLFKLLGYDVHVLCDQTAQEMQEKLQNFAQLPAHRVTDSCIVALLSHGVEGAIYGVDGKLLQLQEVFQLFDNANCPSLQNKPKMFFIQACRGDETDRGVDQQDGKNHAGSPGCEESDAGKEKLPKMRLPTRSDMICGYACLKGTAAMRNTKRGSWYIEALAQVFSERACDMHVADMLVKVNALIKDREGYAPGTEFHRCKEMSEYCSTLCRHLYLFPGHPPT
- cleavage of VDVAD-AMC (fluorescence emission at 510 nm upon excitation at 405 nm) [16]: The cleavage of 50 µM VDVAD-AMC by recombinant caspase-2 (125 U) was measured after 30 min at 37 °C
